The source of these data is patent publication US11731946B2, “Broad spectrum antivirulence, anti-persistence compounds” (priority 2017, dated 2023).

Each structure is given as a SMILES string.

Format in all cases: cell-based, P. aeruginosa
The test system of assay [1] is MvfR regulon. The experiment in a line: LC/MS quantification of HAQs and related molecules in bacterial culture supernatants. The conditions noted are these: Pseudomonas aeruginosa.
Assay [2] relates to MvfR regulon. Kind of assay: Quantification of pyocyanin (OD520nm of chloroform-extracted cultures). The following applies: for activity at 50 µM: read-out: pyocyanin @50 uM (%), compound at 50 uM.
Assay [3] relates to MvfR regulon. The experiment in a line: pqsA gene expression (pqsA-GFP reporter). The conditions noted are these: for activity at 50 µM: read-out: pqsA @50 uM (%), compound at 50 uM.
Where [4] appears, read: compound at 50 uM, listed as G1.

As for `N#Cc1ccc(NC(=O)CC(=O)Nc2ccc(F)cc2)cc1` [Compound 48], the IC50 (usually the concentration that inhibits the measured activity by half) in the assay with MvfR regulon [1] (PA14, read-out: IC50 2-AA (μM)) stood at 20.9 µM; with MvfR regulon [1] (PA14, read-out: IC50 DHQ (μM)), 33 µM; with MvfR regulon [1] (PA14, read-out: IC50 HHQ (μM)), 47.5 µM; with MvfR regulon [1] (PA14, read-out: IC50 PQS (μM)) it was 36.5 µM; in the assay with MvfR regulon [1] (read-out: IC50 AA (increase; μM)) it was 42.5 µM; in the assay on MvfR regulon [1] (read-out: IC50 HQNO (μM)), 33.7 µM. Also, the IC50 in the assay with MvfR regulon [2] (Pseudomonas aeruginosa, read-out: IC50 pyocyanin (μM)) was 7.1 µM; with MvfR regulon [3] (Pseudomonas aeruginosa, read-out: IC50 pqsA (μM)) it was 5.5 µM. For the same molecule, the activity at 50 µM stood at 37.3% with MvfR regulon [1] (read-out: 2-AA @50 uM); 187% in the assay on MvfR regulon [1] (read-out: AA @50 uM); 68.3% in the assay on MvfR regulon [1] (read-out: DHQ @50 uM); 56.8% in the assay with MvfR regulon [1] (read-out: HHQ @50 uM (%)); 58.5% with MvfR regulon [1] (read-out: HQNO @50 uM (%)); 46.7% with MvfR regulon [1] (read-out: PQS @50 uM (%)). Also, the activity at 50 µM with MvfR regulon [2] (Pseudomonas aeruginosa) is 15.7%; with MvfR regulon [3] (Pseudomonas aeruginosa), 9.7%.

`Cc1cc(F)ccc1N1CCCC(NC(=O)c2ccc(C#N)cc2)C1` (centres unmarked) [Compound 50]: the activity at 50 µM in the assay on MvfR regulon [1] (read-out: 2-AA @50 uM) worked out at 101%; with MvfR regulon [1] (read-out: AA @50 uM), 54.5%; with MvfR regulon [1] (read-out: DHQ @50 uM) it was 84.2%; with MvfR regulon [1] (read-out: HHQ @50 uM (%)) it was 98.5%; with MvfR regulon [1] (read-out: HQNO @50 uM (%)) it was 100%; in the assay on MvfR regulon [1] (read-out: PQS @50 uM (%)) it was 96.1%. Moreover, the activity at 50 µM with MvfR regulon [2] (Pseudomonas aeruginosa) was determined as 108%; in the assay with MvfR regulon [3] (Pseudomonas aeruginosa), 89.9%.

Consider `Cc1cc(F)ccc1NCC(=O)Nc1cccc(C#N)c1` [Compound 2], for which the activity at 50 µM in the assay with MvfR regulon [1] (read-out: 2-AA @50 uM) amounted to 122%; in the assay with MvfR regulon [1] (read-out: HHQ @50 uM (%)) it was 100%; in the assay with MvfR regulon [1] (read-out: HQNO @50 uM (%)), 101%; with MvfR regulon [1] (read-out: PQS @50 uM (%)), 109%. In addition, the “pyocyanin @50 uM (%)” value in the assay with MvfR regulon [2] (setting [4]) was found to be 102.49%. The “pqsA @50 uM (%)” value with MvfR regulon [3] (setting [4]) was 84.13%.

Regarding `Cc1cc(F)ccc1NC(C)C(=O)Nc1ccc(C#N)cc1` (centres unmarked) [Compound 7], the activity at 50 µM in the assay with MvfR regulon [1] (read-out: 2-AA @50 uM) was found to be 152%; in the assay on MvfR regulon [1] (read-out: HHQ @50 uM (%)), 106%; in the assay with MvfR regulon [1] (read-out: HQNO @50 uM (%)), 131%; with MvfR regulon [1] (read-out: PQS @50 uM (%)), 115%; in the assay on MvfR regulon [2] (Pseudomonas aeruginosa), 110%; in the assay with MvfR regulon [3] (Pseudomonas aeruginosa), 86.8%.

As for `Cc1cc(F)ccc1OCC(=O)Nc1ccc(F)cc1` [Compound 8], the activity at 50 µM is 71.7% in the assay with MvfR regulon [1] (read-out: 2-AA @50 uM); 67.8% with MvfR regulon [1] (read-out: DHQ @50 uM); 83.5% with MvfR regulon [1] (read-out: HHQ @50 uM (%)); 94% in the assay on MvfR regulon [1] (read-out: HQNO @50 uM (%)); 94.7% with MvfR regulon [1] (read-out: PQS @50 uM (%)); 91.1% in the assay on MvfR regulon [2] (Pseudomonas aeruginosa). Besides, the activity at 50 µM in the assay with MvfR regulon [3] (Pseudomonas aeruginosa) was 78%.

`Cc1cc(F)ccc1CCNC(=O)c1ccc(C#N)cc1` [Compound 51]: the activity at 50 µM was 106% in the assay with MvfR regulon [1] (read-out: 2-AA @50 uM); 68% in the assay on MvfR regulon [1] (read-out: AA @50 uM); 95.5% with MvfR regulon [1] (read-out: DHQ @50 uM); 96.2% with MvfR regulon [1] (read-out: HHQ @50 uM (%)); 102% with MvfR regulon [1] (read-out: HQNO @50 uM (%)); 93.5% in the assay on MvfR regulon [1] (read-out: PQS @50 uM (%)). The activity at 50 µM with MvfR regulon [2] (Pseudomonas aeruginosa) is 110%; in the assay on MvfR regulon [3] (Pseudomonas aeruginosa), 91.4%.

In the case of `Cc1cc(F)ccc1NCC(=O)Nc1ccccc1C#N` [Compound 4], the activity at 50 µM with MvfR regulon [1] (read-out: 2-AA @50 uM) came out at 123%; in the assay on MvfR regulon [1] (read-out: HHQ @50 uM (%)) it was 99.2%; in the assay with MvfR regulon [1] (read-out: HQNO @50 uM (%)), 111%; with MvfR regulon [1] (read-out: PQS @50 uM (%)), 122%; in the assay with MvfR regulon [2] (Pseudomonas aeruginosa), 113%; with MvfR regulon [3] (Pseudomonas aeruginosa), 95.9%.

Turning to `Cc1cc(F)ccc1NCC(=O)Nc1ccc(F)cc1` [Compound 5], the activity at 50 µM in the assay with MvfR regulon [1] (read-out: 2-AA @50 uM) was found to be 80.4%; in the assay on MvfR regulon [1] (read-out: DHQ @50 uM) it was 84.7%; in the assay with MvfR regulon [1] (read-out: HHQ @50 uM (%)) it was 94.6%; with MvfR regulon [1] (read-out: HQNO @50 uM (%)), 92.3%; in the assay with MvfR regulon [1] (read-out: PQS @50 uM (%)), 88.5%; with MvfR regulon [2] (Pseudomonas aeruginosa), 83.6%. Further, the activity at 50 µM with MvfR regulon [3] (Pseudomonas aeruginosa) stood at 92%.

In the case of `Cc1cc(F)ccc1NCC(=O)Nc1ccc(C(F)(F)F)cc1` [Compound 3], the activity at 50 µM with MvfR regulon [1] (read-out: 2-AA @50 uM) came to 68.3%; in the assay on MvfR regulon [1] (read-out: DHQ @50 uM), 81.5%; with MvfR regulon [1] (read-out: HHQ @50 uM (%)) it was 110%; with MvfR regulon [1] (read-out: HQNO @50 uM (%)), 86.5%; in the assay with MvfR regulon [1] (read-out: PQS @50 uM (%)), 93.4%; in the assay on MvfR regulon [2] (Pseudomonas aeruginosa), 60.9%. For the same molecule, the activity at 50 µM with MvfR regulon [3] (Pseudomonas aeruginosa) is 46%.
